Reference: US10954269B2, “Anti-inflammatory tripeptides” (Dr. August Wolff Gmbh & Co. KG Arzneimittel, priority 2013, dated 2021)

What was measured:
primary human T-cells = experiment: Cytokine secretion on protein level in activated primary human T-cells (13-plex FACS / Luminex, supernatant); format: cell-based; details: for IL-1 cytokine concentration / IL-2 cytokine concentration / IL-4 cytokine concentration / IL-5 cytokine concentration / IL-6 cytokine concentration / IL-9 cytokine concentration / IL-10 cytokine concentration / IL-12p70 cytokine concentration / IL-13 cytokine concentration / IL-17 cytokine concentration / IL-22 cytokine concentration / TNF-α cytokine concentration / INF-α cytokine concentration: substance 10^−9M
Summary of the method: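 Stimulus: PMA/Ionomycin or IFN-γ, 48 h; cells: HaCaT or human peripheral-blood T-cells; tripeptide treatment; readout: supernatant cytokines via 13-plex FACS or Luminex, 48–72 h post-stimulation.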

[1] = system: human keratinocyte cell line (HaCaT); experiment: Cytokine secretion on protein level in activated human keratinocyte cell line HaCaT (13-plex FACS / Luminex, supernatant); format: cell-based; details: for IL-1 cytokine concentration / IL-2 cytokine concentration / IL-4 cytokine concentration / IL-5 cytokine concentration / IL-6 cytokine concentration / IL-9 cytokine concentration / IL-10 cytokine concentration / IL-12p70 cytokine concentration / IL-13 cytokine concentration / IL-17 cytokine concentration / IL-22 cytokine concentration / TNF-α cytokine concentration / IFN-γ cytokine concentration: substance 10^−9M
Summary of the method: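 Primary T-cells from peripheral blood of healthy volunteers, or HaCaT cells, were activated with PMA/Ionomycin or IFN-γ for 48 h and treated with tripeptides. Supernatants were collected 48 h and 72 h after stimulation and cytokines (IL-1, IL-2, IL-6, IL-12p70, IL-17, IFN-γ, TNF-α) were measured by 13-plex FACS.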

primary murine T-cells = experiment: Cytokine secretion on protein level in activated primary murine T-cells (13-plex FACS / Luminex, supernatant); format: cell-based, C57BL/6 mice; details: substance 10^−9M
Summary of the method: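 T-cells from secondary lymphatic organs of naïve C57BL/6 mice, stimulated with PMA/Ionomycin or IFN-γ; supernatant cytokines measured by 13-plex FACS 48 h and 72 h after stimulation. In another run, PMA/Ionomycin-stimulated cells received compounds at 10^−7, 10^−9 and 10^−11 M, with IFN-γ, IL-17 and IL-10 measured by Luminex.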

[2] = primary human T-cells stimulated with IFN-γ
[3] = primary human T-cells stimulated with PBS
[4] = primary human T-cells stimulated with PMA/Ionomycin
[5] = HaCaT stimulated with PMA/Ionomycin
[6] = primary murine T-cells stimulated with IFN-γ
[7] = primary murine T-cells stimulated with PBS
[8] = primary murine T-cells stimulated with PMA/Ionomycin

N^α,N^α-dimethyl-(L)-Nle-(D)-Pro-N^α-methyl-(L)-Thr-OH [Example 6]
secretion / expression of pro-inflammatory cytokines (supernatant) (primary human T-cells; activated primary human T-cells): decreased expression
IL-1 cytokine concentration (primary human T-cells; [2]): 0 pg/mL
IL-2 cytokine concentration (primary human T-cells; [2]): 0 pg/mL
IL-4 cytokine concentration (primary human T-cells; [2]): 76.04 pg/mL
IL-5 cytokine concentration (primary human T-cells; [2]): 0 pg/mL
IL-6 cytokine concentration (primary human T-cells; [2]): 45.83 pg/mL
IL-9 cytokine concentration (primary human T-cells; [2]): 0 pg/mL
IL-10 cytokine concentration (primary human T-cells; [2]): 51.86 pg/mL
IL-12p70 cytokine concentration (primary human T-cells; [2]): 0 pg/mL
IL-13 cytokine concentration (primary human T-cells; [2]): 46.95 pg/mL
IL-17 cytokine concentration (primary human T-cells; [2]): 36.76 pg/mL
IL-22 cytokine concentration (primary human T-cells; [2]): 0 pg/mL
TNF-α cytokine concentration (primary human T-cells; [2]): 17.44 pg/mL
IL-1 cytokine concentration (primary human T-cells; [3]): 107.12 pg/mL
IL-2 cytokine concentration (primary human T-cells; [3]): 114.93 pg/mL
IL-5 cytokine concentration (primary human T-cells; [3]): 12.74 pg/mL
IL-6 cytokine concentration (primary human T-cells; [3]): 105.53 pg/mL
IL-9 cytokine concentration (primary human T-cells; [3]): 8.15 pg/mL
IL-10 cytokine concentration (primary human T-cells; [3]): 92.62 pg/mL
IL-12p70 cytokine concentration (primary human T-cells; [3]): 0 pg/mL
IL-13 cytokine concentration (primary human T-cells; [3]): 0 pg/mL
IL-17 cytokine concentration (primary human T-cells; [3]): 113.52 pg/mL
IL-22 cytokine concentration (primary human T-cells; [3]): 0 pg/mL
INF-α cytokine concentration (primary human T-cells; [3]): 0 pg/mL
TNF-α cytokine concentration (primary human T-cells; [3]): 28.11 pg/mL
IL-1 cytokine concentration (primary human T-cells; [4]): 533.57 pg/mL
IL-2 cytokine concentration (primary human T-cells; [4]): 2005.81 pg/mL
IL-4 cytokine concentration (primary human T-cells; [4]): 87.24 pg/mL
IL-5 cytokine concentration (primary human T-cells; [4]): 312.5 pg/mL
IL-6 cytokine concentration (primary human T-cells; [4]): 1194.58 pg/mL
IL-9 cytokine concentration (primary human T-cells; [4]): 238.28 pg/mL
IL-10 cytokine concentration (primary human T-cells; [4]): 999.32 pg/mL
IL-12p70 cytokine concentration (primary human T-cells; [4]): 0 pg/mL
IL-13 cytokine concentration (primary human T-cells; [4]): 1050.19 pg/mL
IL-17 cytokine concentration (primary human T-cells; [4]): 1388.88 pg/mL
IL-22 cytokine concentration (primary human T-cells; [4]): 0 pg/mL
INF-α cytokine concentration (primary human T-cells; [4]): 7597.87 pg/mL
TNF-α cytokine concentration (primary human T-cells; [4]): 2638.52 pg/mL
IL-1 cytokine concentration ([1]; HaCaT stimulated with IFN-γ): 0 pg/mL
IL-2 cytokine concentration ([1]; HaCaT stimulated with IFN-γ): 17.47 pg/mL
IL-4 cytokine concentration ([1]; HaCaT stimulated with IFN-γ): 0 pg/mL
IL-5 cytokine concentration ([1]; HaCaT stimulated with IFN-γ): 0 pg/mL
IL-6 cytokine concentration ([1]; HaCaT stimulated with IFN-γ): 202.37 pg/mL
IL-9 cytokine concentration ([1]; HaCaT stimulated with IFN-γ): 0 pg/mL
IL-10 cytokine concentration ([1]; HaCaT stimulated with IFN-γ): 0 pg/mL
IL-12p70 cytokine concentration ([1]; HaCaT stimulated with IFN-γ): 0 pg/mL
IL-13 cytokine concentration ([1]; HaCaT stimulated with IFN-γ): 1872.11 pg/mL
IL-17 cytokine concentration ([1]; HaCaT stimulated with IFN-γ): 0 pg/mL
IL-22 cytokine concentration ([1]; HaCaT stimulated with IFN-γ): 0 pg/mL
TNF-α cytokine concentration ([1]; HaCaT stimulated with IFN-γ): 0 pg/mL
IFN-γ cytokine concentration ([1]; HaCaT stimulated with PBS): 0 pg/mL
IL-1 cytokine concentration ([1]; HaCaT stimulated with PBS): 25.45 pg/mL
IL-2 cytokine concentration ([1]; HaCaT stimulated with PBS): 0 pg/mL
IL-4 cytokine concentration ([1]; HaCaT stimulated with PBS): 91.99 pg/mL
IL-5 cytokine concentration ([1]; HaCaT stimulated with PBS): 0 pg/mL
IL-6 cytokine concentration ([1]; HaCaT stimulated with PBS): 52.48 pg/mL
IL-9 cytokine concentration ([1]; HaCaT stimulated with PBS): 0 pg/mL
IL-10 cytokine concentration ([1]; HaCaT stimulated with PBS): 57.95 pg/mL
IL-12p70 cytokine concentration ([1]; HaCaT stimulated with PBS): 0 pg/mL
IL-13 cytokine concentration ([1]; HaCaT stimulated with PBS): 0 pg/mL
IL-17 cytokine concentration ([1]; HaCaT stimulated with PBS): 26.72 pg/mL
IL-22 cytokine concentration ([1]; HaCaT stimulated with PBS): 0 pg/mL
TNF-α cytokine concentration ([1]; HaCaT stimulated with PBS): 8.21 pg/mL
IFN-γ cytokine concentration [1, 5]: 0 pg/mL
IL-1 cytokine concentration [1, 5]: 62.07 pg/mL
IL-2 cytokine concentration [1, 5]: 16.53 pg/mL
IL-4 cytokine concentration [1, 5]: 0 pg/mL
IL-5 cytokine concentration [1, 5]: 0 pg/mL
IL-6 cytokine concentration [1, 5]: 248.33 pg/mL
IL-9 cytokine concentration [1, 5]: 3.71 pg/mL
IL-10 cytokine concentration [1, 5]: 64.03 pg/mL
IL-12p70 cytokine concentration [1, 5]: 0 pg/mL
IL-13 cytokine concentration [1, 5]: 0 pg/mL
IL-17 cytokine concentration [1, 5]: 21.52 pg/mL
IL-22 cytokine concentration [1, 5]: 0 pg/mL
TNF-α cytokine concentration [1, 5]: 5.37 pg/mL
secretion / expression of pro-inflammatory cytokines (supernatant) ([1]; activated human keratinocytes): decreased expression
IL-1 cytokine concentration (primary murine T-cells; [6]): 95.15 pg/mL
IL-2 cytokine concentration (primary murine T-cells; [6]): 181.25 pg/mL
IL-4 cytokine concentration (primary murine T-cells; [6]): 156.84 pg/mL
IL-5 cytokine concentration (primary murine T-cells; [6]): 517.47 pg/mL
IL-6 cytokine concentration (primary murine T-cells; [6]): 223.98 pg/mL
IL-10 cytokine concentration (primary murine T-cells; [6]): 1782.7 pg/mL
IL-13 cytokine concentration (primary murine T-cells; [6]): 0 pg/mL
IL-17 cytokine concentration (primary murine T-cells; [6]): 189.88 pg/mL
IL-21 cytokine concentration (primary murine T-cells; [6]): 251.06 pg/mL
IL-22 cytokine concentration (primary murine T-cells; [6]): 73.27 pg/mL
IL-27 cytokine concentration (primary murine T-cells; [6]): 0 pg/mL
TNF-α cytokine concentration (primary murine T-cells; [6]): 40.87 pg/mL
IFN-γ cytokine concentration (primary murine T-cells; [7]): 546.71 pg/mL
IL-1 cytokine concentration (primary murine T-cells; [7]): 106.27 pg/mL
IL-2 cytokine concentration (primary murine T-cells; [7]): 204.71 pg/mL
IL-4 cytokine concentration (primary murine T-cells; [7]): 39.23 pg/mL
IL-5 cytokine concentration (primary murine T-cells; [7]): 407.29 pg/mL
IL-6 cytokine concentration (primary murine T-cells; [7]): 170.46 pg/mL
IL-10 cytokine concentration (primary murine T-cells; [7]): 1391.3 pg/mL
IL-13 cytokine concentration (primary murine T-cells; [7]): 0 pg/mL
IL-17 cytokine concentration (primary murine T-cells; [7]): 0 pg/mL
IL-21 cytokine concentration (primary murine T-cells; [7]): 0 pg/mL
IL-22 cytokine concentration (primary murine T-cells; [7]): 16.55 pg/mL
IL-27 cytokine concentration (primary murine T-cells; [7]): 108.06 pg/mL
TNF-α cytokine concentration (primary murine T-cells; [7]): 0 pg/mL
IFN-γ cytokine concentration (primary murine T-cells; [8]): 8164.35 pg/mL
IL-1 cytokine concentration (primary murine T-cells; [8]): 486.85 pg/mL
IL-2 cytokine concentration (primary murine T-cells; [8]): 218.69 pg/mL
IL-4 cytokine concentration (primary murine T-cells; [8]): 164.69 pg/mL
IL-5 cytokine concentration (primary murine T-cells; [8]): 380.37 pg/mL
IL-6 cytokine concentration (primary murine T-cells; [8]): 237.95 pg/mL
IL-10 cytokine concentration (primary murine T-cells; [8]): 988.64 pg/mL
IL-13 cytokine concentration (primary murine T-cells; [8]): 0 pg/mL
IL-17 cytokine concentration (primary murine T-cells; [8]): 200.32 pg/mL
IL-21 cytokine concentration (primary murine T-cells; [8]): 470.65 pg/mL
IL-22 cytokine concentration (primary murine T-cells; [8]): 85.67 pg/mL
IL-27 cytokine concentration (primary murine T-cells; [8]): 95.51 pg/mL
TNF-α cytokine concentration (primary murine T-cells; [8]): 72.81 pg/mL
